Data from article PMC11418212, “Characterization of four structurally diverse inhibitors of SUR2-containing KATP channels” (Channels, 2024).
“And” between values parts separate entries of the source, which are not always exact repeats. Identical values can stand only once. “Also recorded” adds a separate entry of the source.

What was measured:
Type in all cases: cell-based
Kir6.2/SUR1 = Kir6.2/SUR1 (Homo sapiens, UniProt Q09428); assay: Quantitative thallium flux assay, inhibition, stably transfected T-REx-HEK293 cells; details: for Effect on Kir6.2/SUR1 channel activity: VU0071063 activation or ATP depletion, full range of doses tested (up to 30 µM); for IC50 / IC50 Kir6.2/SUR1, ATP depletion / IC50 Kir6.2/SUR1, VU0071063 activation: thallium flux; for IC50 / IC50 Kir6.2/SUR1, ATP depletion: ATP depletion with sodium cyanide and 2-deoxy-glucose; for IC50 Kir6.2/SUR1, VU0071063 activation: in the presence of 10 uM VU0071063
Protocol: Briefly, T-Rex-HEK293 cells underwent co-transfection with pcDNA5/TO-Kir6.1 or pcDNA5/TO-Kir6.2 (inducible expression) and pcDNA3.1-SUR2B or pcDNA3.1-SUR1 (constitutive expression) using Lipofectamine LTX following the manufacturer’s instructions and were then subjected to selection with antibiotics. Monoclonal cell lines were established through limiting dilution and characterization in thallium flux assays described below. […] KATP channel selectivity assays were performed in HEK293 cells transiently transfected with the indicated subunit using Lipofectamine LTX. The cells were incubated for 48 h after transfection before performing thallium flux assays.
Thallium flux assays were conducted using the established methods. Stably transfected T-REx-HEK-293 cells expressing Kir6.2/SUR1 or Kir6.1/SUR2B were cultured overnight in polyamine-coated plates (black-walled, clear-bottomed; BD, Bedford, MA) at a density of 20,000 cells in 20 µl per well of cell culture media. The expression of Kir6.2/SUR1 or Kir6.1/SUR2B channels was induced by treating cells with 1 µg/ml tetracycline overnight. The following day, cells were rinsed with an assay buffer (Hanks’ Balanced Salt Solution supplied with 20 mM HEPES), loaded with the thallium-sensor dye Brilliant Thallos-AM AM (Ion Bioscience, San Marcos, TX) for 1 h, and then washed again with assay buffer to remove unincorporated dye. […] To activate KATP channels independent of activators with ATP-depletion method, cells were treated with a cocktail of metabolic inhibitors (2.5 mM sodium cyanide and 20 mM 2-deoxy glucose) for 25 min before imagine. Control and test compounds diluted freshly from DMSO stocks into assay buffer were added to wells for four minutes before adding 0.5 mM chloride-free thallium stimulus buffer (Ion Bioscience) to initiate thallium flux through the expressed KATP channels. Thallium flux was recorded from all 384-wells for 2 min before terminating the experiment. […] Selectivity assays against other Kir channels were performed as described previously.
The kinetic fluorescence measurements (F) from each well were normalized to the initial reading (F0), producing static ratios (F/F0) that adjust for variations in cell count and dye uptake. […] The response (maxmin2) was determined by subtracting the min value from the max value. Percent inhibition was calculated by normalizing each well’s response to the positive and negative controls. Concentration–response curves were fitted using a single-site, four-parameter logistic function in Prism version 4.0 (GraphPad Software Inc., San Diego, CA) to calculate the half-maximal inhibitory concentration (IC50). Statistical comparisons of IC50 values were performed using an extra sum-of-squares F test and the Mann–Whitney test. A p-value of less than 0.05 was considered statistically significant.

Kir4.1 = target: T1, Kir4.1 (Homo sapiens, UniProt P78508); assay: Kir family selectivity thallium flux assay
T1 construct: expressed in transfected cells
T1 sequence (P78508 1-379): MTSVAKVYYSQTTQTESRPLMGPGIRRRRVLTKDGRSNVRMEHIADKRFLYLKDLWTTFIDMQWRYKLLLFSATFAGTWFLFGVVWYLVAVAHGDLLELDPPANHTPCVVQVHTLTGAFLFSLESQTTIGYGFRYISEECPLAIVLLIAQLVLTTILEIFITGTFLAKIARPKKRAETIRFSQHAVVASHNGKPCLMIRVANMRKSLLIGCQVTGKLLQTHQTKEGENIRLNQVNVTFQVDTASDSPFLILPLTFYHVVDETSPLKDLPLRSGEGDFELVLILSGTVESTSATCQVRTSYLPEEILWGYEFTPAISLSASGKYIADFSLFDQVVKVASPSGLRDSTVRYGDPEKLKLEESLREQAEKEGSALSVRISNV

Kir7.1 (M125R) = target: T2, Kir7.1 (M125R) (Homo sapiens, UniProt O60928, M125R); assay: Kir family selectivity thallium flux assay; details: for IC50: thallium flux
T2 construct: expressed in transfected cells
T2 sequence (O60928 1-360 M125R): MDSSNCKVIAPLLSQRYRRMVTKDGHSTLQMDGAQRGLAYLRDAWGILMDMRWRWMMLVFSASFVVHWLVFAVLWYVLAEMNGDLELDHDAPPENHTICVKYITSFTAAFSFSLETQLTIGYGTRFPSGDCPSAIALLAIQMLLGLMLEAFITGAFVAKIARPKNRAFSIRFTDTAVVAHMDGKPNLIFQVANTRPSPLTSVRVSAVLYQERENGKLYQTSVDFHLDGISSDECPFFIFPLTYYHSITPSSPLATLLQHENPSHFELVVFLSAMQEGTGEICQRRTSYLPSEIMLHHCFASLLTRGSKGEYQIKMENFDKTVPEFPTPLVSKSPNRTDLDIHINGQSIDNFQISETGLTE

Kir6.2/SUR1, sequence (Q09428 whole entry, species assumed): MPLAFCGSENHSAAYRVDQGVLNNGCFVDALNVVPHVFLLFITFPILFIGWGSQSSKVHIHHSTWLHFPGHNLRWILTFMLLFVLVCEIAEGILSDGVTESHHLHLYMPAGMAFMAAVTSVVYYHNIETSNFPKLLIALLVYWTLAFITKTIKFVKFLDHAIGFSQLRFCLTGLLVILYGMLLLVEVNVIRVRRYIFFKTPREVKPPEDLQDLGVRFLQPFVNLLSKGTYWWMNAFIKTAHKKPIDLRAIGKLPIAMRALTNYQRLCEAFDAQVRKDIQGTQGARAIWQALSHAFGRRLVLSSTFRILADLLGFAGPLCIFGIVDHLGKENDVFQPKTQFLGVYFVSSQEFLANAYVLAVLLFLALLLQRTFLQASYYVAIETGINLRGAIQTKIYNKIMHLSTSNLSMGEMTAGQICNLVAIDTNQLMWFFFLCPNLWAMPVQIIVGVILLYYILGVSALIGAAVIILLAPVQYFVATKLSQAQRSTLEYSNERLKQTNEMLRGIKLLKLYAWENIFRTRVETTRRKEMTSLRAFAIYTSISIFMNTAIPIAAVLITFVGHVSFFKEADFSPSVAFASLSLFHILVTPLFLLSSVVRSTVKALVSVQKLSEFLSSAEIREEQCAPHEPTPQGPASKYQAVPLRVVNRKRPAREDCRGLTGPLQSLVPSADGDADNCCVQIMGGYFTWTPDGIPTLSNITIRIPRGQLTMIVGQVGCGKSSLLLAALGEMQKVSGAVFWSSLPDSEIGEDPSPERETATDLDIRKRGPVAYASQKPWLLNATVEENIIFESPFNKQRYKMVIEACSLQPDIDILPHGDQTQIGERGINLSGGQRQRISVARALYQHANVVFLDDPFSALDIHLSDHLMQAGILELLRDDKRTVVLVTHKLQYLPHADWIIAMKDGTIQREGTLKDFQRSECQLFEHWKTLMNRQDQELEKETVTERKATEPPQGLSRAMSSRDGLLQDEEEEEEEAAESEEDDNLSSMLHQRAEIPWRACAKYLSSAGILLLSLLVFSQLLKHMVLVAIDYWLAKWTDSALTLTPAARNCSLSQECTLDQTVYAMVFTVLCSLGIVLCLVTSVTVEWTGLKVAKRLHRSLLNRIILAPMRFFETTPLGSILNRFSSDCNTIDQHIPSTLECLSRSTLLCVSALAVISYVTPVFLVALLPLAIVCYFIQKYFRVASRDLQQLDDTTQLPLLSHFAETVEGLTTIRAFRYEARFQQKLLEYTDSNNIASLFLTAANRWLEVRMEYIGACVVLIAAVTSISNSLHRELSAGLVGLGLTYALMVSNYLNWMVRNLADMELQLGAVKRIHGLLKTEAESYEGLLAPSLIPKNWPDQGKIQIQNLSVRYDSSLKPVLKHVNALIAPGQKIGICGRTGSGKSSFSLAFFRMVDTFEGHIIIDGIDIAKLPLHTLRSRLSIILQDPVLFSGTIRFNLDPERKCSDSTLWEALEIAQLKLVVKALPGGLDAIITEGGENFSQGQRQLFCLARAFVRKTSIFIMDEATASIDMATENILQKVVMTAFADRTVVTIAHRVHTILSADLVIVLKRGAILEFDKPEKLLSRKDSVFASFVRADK
Kir6.2/SUR1, sequence (Q14654 whole entry partner, species assumed): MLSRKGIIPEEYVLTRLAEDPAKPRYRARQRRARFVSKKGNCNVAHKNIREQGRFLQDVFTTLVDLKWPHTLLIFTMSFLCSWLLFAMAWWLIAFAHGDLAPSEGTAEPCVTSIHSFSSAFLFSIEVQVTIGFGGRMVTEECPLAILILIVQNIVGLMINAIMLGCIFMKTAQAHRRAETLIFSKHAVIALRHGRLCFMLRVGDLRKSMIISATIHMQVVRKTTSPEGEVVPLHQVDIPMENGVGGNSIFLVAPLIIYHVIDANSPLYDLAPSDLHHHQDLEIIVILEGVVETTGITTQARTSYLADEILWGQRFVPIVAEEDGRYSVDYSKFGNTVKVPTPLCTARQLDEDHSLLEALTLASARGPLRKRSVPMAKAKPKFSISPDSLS

For `O=C(NCC(O)(c1ccccc1)C(F)(F)F)c1ccc(OC(F)(F)F)cc1` (stereo not shown) [VU0543336, N-(3,3,3-trifluoro-2-hydroxy-2-phenylpropyl)-4-(trifluoromethoxy)benzamide], the “Effect on Kir6.2/SUR1 channel activity” value (Kir6.2/SUR1) was “no apparent inhibitory activity; also recorded: no effect”, the IC50 (Kir6.2/SUR1) was > 30 µM and the “IC50 Kir6.2/SUR1, ATP depletion” value (Kir6.2/SUR1) was “no fit”. The “IC50 Kir6.2/SUR1, VU0071063 activation” value (Kir6.2/SUR1) was “no fit”, the IC50 (Kir4.1) was > 30 µM and the IC50 (Kir7.1 (M125R)) was > 30 µM.
`O=C1c2oc3ccccc3c(=O)c2C(c2cccc(Br)c2)N1CCO` (stereo not shown) [VU0605768, 1-(3-bromophenyl)-2-(2-hydroxyethyl)-1,2-dihydrochromeno[2,3-c]pyrrole-3,9-dione] was tested, and the “Effect on Kir6.2/SUR1 channel activity” value (Kir6.2/SUR1) was “no apparent inhibitory activity; also recorded: no effect”, the IC50 (Kir6.2/SUR1) was > 30 µM and the “IC50 Kir6.2/SUR1, ATP depletion” value (Kir6.2/SUR1) was “no fit”. For the same compound, the “IC50 Kir6.2/SUR1, VU0071063 activation” value (Kir6.2/SUR1) was “no fit”, the IC50 (Kir4.1) was > 30 µM and the IC50 (Kir7.1 (M125R)) was > 30 µM.
With `O=C(NCc1cc(-c2ccncc2)n(C2CCCC2)n1)Nc1cccs1` [VU0544086, 1-((1-cyclopentyl-5-(pyridin-4-yl)-1 H-pyrazol-3-yl)methyl)-3-(thiophen-2-yl)urea] the “Effect on Kir6.2/SUR1 channel activity” value (Kir6.2/SUR1) was “no apparent inhibitory activity; also recorded: no effect”, the IC50 (Kir6.2/SUR1) was > 30 µM and the “IC50 Kir6.2/SUR1, ATP depletion” value (Kir6.2/SUR1) was “no fit”. For the same compound, the “IC50 Kir6.2/SUR1, VU0071063 activation” value (Kir6.2/SUR1) was “no fit”, the IC50 (Kir4.1) was > 30 µM and the IC50 (Kir7.1 (M125R)) was > 30 µM.
With `c1ccc2[nH]c(CSc3ncnc4c3oc3ccccc34)nc2c1` [VU0212387, 4-(((1 H-benzo[d]imidazol-2-yl)methyl)thio)benzofuro[3,2-d]pyrimidine] the “Effect on Kir6.2/SUR1 channel activity” value (Kir6.2/SUR1) was “no apparent inhibitory activity; also recorded: no effect”, the IC50 (Kir6.2/SUR1) was > 30 µM and the “IC50 Kir6.2/SUR1, ATP depletion” value (Kir6.2/SUR1) was “no fit”. For the same compound, the “IC50 Kir6.2/SUR1, VU0071063 activation” value (Kir6.2/SUR1) was “no fit”, the IC50 (Kir4.1) was > 30 µM and the inhibition at 30 µM (Kir7.1 (M125R); observed at 30 µM, read-out: Percent maximal inhibition of Kir7.1 (M125R)) was 69%. The IC50 (Kir7.1 (M125R)) was 12 µM and 12.3 µM.
